The source of these data is ChEMBL document CHEMBL1697781, “Assessment of the health effects of chemicals in humans: II. Construction of an adverse effects database for QSAR modeling” (Curr Drug Discov Technol, 2004).

SMILES strings stand for the structures. Some results are limits rather than exact numbers.

What all share (conditions): human
The subject of data set [1] is Hepatotoxicity. The data set is described as follows: FDA HLAED, lactate dehydrogenase (LDH) increase.
Data set [2] relates to Hepatotoxicity. The data set is described as follows: FDA HLAED, serum glutamic pyruvic transaminase (SGPT) increase.
The test system of data set [3] is Hepatotoxicity. The data set is described as follows: FDA HLAED, liver enzyme composite activity.
The subject of data set [4] is Hepatotoxicity. The data set is described as follows: FDA HLAED, serum glutamic oxaloacetic transaminase (SGOT) increase.
Data set [5] relates to Hepatotoxicity. The data set is described as follows: FDA HLAED, alkaline phosphatase increase.
Data set [6] deals with Hepatotoxicity. The data set is described as follows: FDA HLAED, gamma-glutamyl transferase (GGT) increase.
For GGT Increase - Index Value in this document: reference of the scale not given here.
For LDH Increase - Index Value in this document: reference of the scale not given here.

Turning to `CCCN1C[C@H](CSC)C[C@@H]2c3cccc4[nH]cc(c34)C[C@H]21` [PERGOLIDE], in the data set on Hepatotoxicity [1], the “LDH Increase - Activity Score” value is on record as “Inactive”, the “LDH Increase - Index Value” stood at 0 and the “LDH Increase - Number of Reports” value is on record as < 4. For the same compound, in the data set with Hepatotoxicity [2], the “SGPT Increase - Activity Score” value is “Inactive”, the “SGPT Increase - Index Value” came to 3.9 and the “SGPT Increase - Number of Reports” value is < 4. In addition, in the data set with Hepatotoxicity [3], the “Composite Activity - Active” value turned out to be 0, the “Composite Activity - Marginal” value is recorded as 0 and the “Composite Activity - Score” value is recorded as “Inactive”. Moreover, in the data set with Hepatotoxicity [4], the “SGOT Increase - Activity Score” value is reported as “Inactive”, the “SGOT Increase - Index Value” amounted to 3.9 and the “SGOT Increase - Number of Reports” value is < 4. In the data set on Hepatotoxicity [5], the “Alkaline Phosphatase Increase - Activity Score” value is “Inactive”, the “Alkaline Phosphatase Increase - Index Value” turned out to be 1.3 and the “Alkaline Phosphatase Increase - Number of Reports” value was < 4. Further, in the data set on Hepatotoxicity [6], the “GGT Increase - Activity Score” value is recorded as “Inactive”, the “GGT Increase - Index Value” is on record as 0 and the “GGT Increase - Number of Reports” value is recorded as < 4.

As to `CC1(C)C(C=C(Cl)Cl)C1C(=O)OCc1cccc(Oc2ccccc2)c1` (configuration not stated) [PERMETHRIN], in the data set with Hepatotoxicity [1], the “LDH Increase - Activity Score” value was “Inactive”, the “LDH Increase - Index Value” was 0 and the “LDH Increase - Number of Reports” value is given as < 4. In addition, in the data set on Hepatotoxicity [2], the “SGPT Increase - Activity Score” value is “Inactive”, the “SGPT Increase - Index Value” is listed as 0 and the “SGPT Increase - Number of Reports” value was < 4. In the data set on Hepatotoxicity [3], the “Composite Activity - Active” value is recorded as 0, the “Composite Activity - Marginal” value was found to be 0 and the “Composite Activity - Score” value was “Inactive”. In addition, in the data set with Hepatotoxicity [4], the “SGOT Increase - Activity Score” value was “Inactive”, the “SGOT Increase - Index Value” amounted to 0 and the “SGOT Increase - Number of Reports” value is listed as < 4. In addition, in the data set on Hepatotoxicity [5], the “Alkaline Phosphatase Increase - Activity Score” value was “Inactive”, the “Alkaline Phosphatase Increase - Index Value” is recorded as 0 and the “Alkaline Phosphatase Increase - Number of Reports” value is on record as < 4. In the data set with Hepatotoxicity [6], the “GGT Increase - Activity Score” value is recorded as “Inactive”, the “GGT Increase - Index Value” stood at 0 and the “GGT Increase - Number of Reports” value is reported as < 4.

In the case of `CC[C@@H]1C(=O)OC[C@@H]1Cc1cncn1C` [PILOCARPINE], in the data set with Hepatotoxicity [1], the “LDH Increase - Activity Score” value is recorded as “Inactive”, the “LDH Increase - Index Value” is given as 0 and the “LDH Increase - Number of Reports” value was < 4. Besides, in the data set with Hepatotoxicity [2], the “SGPT Increase - Activity Score” value is “Inactive”, the “SGPT Increase - Index Value” was found to be 4.6 and the “SGPT Increase - Number of Reports” value is < 4. Also, in the data set with Hepatotoxicity [3], the “Composite Activity - Active” value is given as 0, the “Composite Activity - Marginal” value was determined as 0 and the “Composite Activity - Score” value is “Inactive”. Moreover, in the data set on Hepatotoxicity [4], the “SGOT Increase - Activity Score” value was “Inactive”, the “SGOT Increase - Index Value” is 4.6 and the “SGOT Increase - Number of Reports” value is recorded as < 4. Besides, in the data set with Hepatotoxicity [5], the “Alkaline Phosphatase Increase - Activity Score” value is given as “Inactive”, the “Alkaline Phosphatase Increase - Index Value” is on record as 0 and the “Alkaline Phosphatase Increase - Number of Reports” value is listed as < 4. In the data set on Hepatotoxicity [6], the “GGT Increase - Activity Score” value is reported as “Inactive”, the “GGT Increase - Index Value” worked out at 0 and the “GGT Increase - Number of Reports” value is < 4.

Turning to `O=c1[nH]c2ccccc2n1C1CCN(CCCC(c2ccc(F)cc2)c2ccc(F)cc2)CC1` [PIMOZIDE], in the data set with Hepatotoxicity [1], the “LDH Increase - Activity Score” value is “Inactive”, the “LDH Increase - Index Value” turned out to be 0 and the “LDH Increase - Number of Reports” value is < 4. For the same compound, in the data set with Hepatotoxicity [2], the “SGPT Increase - Activity Score” value is reported as “Inactive”, the “SGPT Increase - Index Value” turned out to be 17.6 and the “SGPT Increase - Number of Reports” value is < 4. Further, in the data set on Hepatotoxicity [3], the “Composite Activity - Active” value worked out at 0, the “Composite Activity - Marginal” value was 0 and the “Composite Activity - Score” value is listed as “Inactive”. In addition, in the data set on Hepatotoxicity [4], the “SGOT Increase - Activity Score” value is “Inactive”, the “SGOT Increase - Index Value” was found to be 0 and the “SGOT Increase - Number of Reports” value was < 4. In the data set with Hepatotoxicity [5], the “Alkaline Phosphatase Increase - Activity Score” value is “Inactive”, the “Alkaline Phosphatase Increase - Index Value” is 17.6 and the “Alkaline Phosphatase Increase - Number of Reports” value is < 4. In the data set with Hepatotoxicity [6], the “GGT Increase - Activity Score” value is given as “Inactive”, the “GGT Increase - Index Value” is reported as 17.6 and the “GGT Increase - Number of Reports” value was < 4.

With `CC(C)NCC(O)COc1cccc2[nH]ccc12` (configuration not stated) [PINDOLOL], in the data set with Hepatotoxicity [1], the “LDH Increase - Activity Score” value is on record as “Inactive”, the “LDH Increase - Index Value” amounted to 0.7 and the “LDH Increase - Number of Reports” value was < 4. Also, in the data set on Hepatotoxicity [2], the “SGPT Increase - Activity Score” value was “Inactive”, the “SGPT Increase - Index Value” worked out at 2.6 and the “SGPT Increase - Number of Reports” value is given as “>= 4”. In the data set with Hepatotoxicity [3], the “Composite Activity - Active” value turned out to be 0, the “Composite Activity - Marginal” value was determined as 0 and the “Composite Activity - Score” value was “Inactive”. For the same compound, in the data set with Hepatotoxicity [4], the “SGOT Increase - Activity Score” value is “Inactive”, the “SGOT Increase - Index Value” is reported as 2.6 and the “SGOT Increase - Number of Reports” value is reported as “>= 4”. In the data set with Hepatotoxicity [5], the “Alkaline Phosphatase Increase - Activity Score” value is reported as “Inactive”, the “Alkaline Phosphatase Increase - Index Value” was 1 and the “Alkaline Phosphatase Increase - Number of Reports” value is reported as < 4. Also, in the data set on Hepatotoxicity [6], the “GGT Increase - Activity Score” value was “Inactive”, the “GGT Increase - Index Value” amounted to 0 and the “GGT Increase - Number of Reports” value is recorded as < 4.

On to `CC(=O)O[C@H]1C[C@@H]2CC[C@@H]3[C@H](CC[C@@]4(C)[C@H]3C[C@H](N3CC[N+](C)(C)CC3)[C@@H]4OC(C)=O)[C@@]2(C)C[C@@H]1N1CC[N+](C)(C)CC1.[Br-].[Br-]` [PIPECURONIUM BROMIDE], for which, in the data set with Hepatotoxicity [1], the “LDH Increase - Activity Score” value was “Inactive”, the “LDH Increase - Index Value” was determined as 0 and the “LDH Increase - Number of Reports” value was < 4. Also, in the data set with Hepatotoxicity [2], the “SGPT Increase - Activity Score” value was “Inactive”, the “SGPT Increase - Index Value” worked out at 0 and the “SGPT Increase - Number of Reports” value is < 4. Besides, in the data set on Hepatotoxicity [3], the “Composite Activity - Active” value stood at 0, the “Composite Activity - Marginal” value was 0 and the “Composite Activity - Score” value is reported as “Inactive”. Also, in the data set on Hepatotoxicity [4], the “SGOT Increase - Activity Score” value is listed as “Inactive”, the “SGOT Increase - Index Value” is 0 and the “SGOT Increase - Number of Reports” value is < 4. In addition, in the data set on Hepatotoxicity [5], the “Alkaline Phosphatase Increase - Activity Score” value was “Inactive”, the “Alkaline Phosphatase Increase - Index Value” is on record as 0 and the “Alkaline Phosphatase Increase - Number of Reports” value is listed as < 4. In addition, in the data set on Hepatotoxicity [6], the “GGT Increase - Activity Score” value is listed as “Inactive”, the “GGT Increase - Index Value” was determined as 0 and the “GGT Increase - Number of Reports” value is on record as < 4.

On to `CCN1CCN(C(=O)N[C@@H](C(=O)N[C@@H]2C(=O)N3[C@@H]2SC(C)(C)[C@@H]3C(=O)O)c2ccccc2)C(=O)C1=O` [PIPERACILLIN], for which, in the data set on Hepatotoxicity [1], the “LDH Increase - Activity Score” value is on record as “Inactive”, the “LDH Increase - Index Value” is 0 and the “LDH Increase - Number of Reports” value was < 4. Besides, in the data set with Hepatotoxicity [2], the “SGPT Increase - Activity Score” value was “Inactive”, the “SGPT Increase - Index Value” was determined as 0 and the “SGPT Increase - Number of Reports” value is < 4. In the data set on Hepatotoxicity [3], the “Composite Activity - Active” value amounted to 0, the “Composite Activity - Marginal” value amounted to 0 and the “Composite Activity - Score” value was “Inactive”. Moreover, in the data set with Hepatotoxicity [4], the “SGOT Increase - Activity Score” value was “Inactive”, the “SGOT Increase - Index Value” worked out at 0.3 and the “SGOT Increase - Number of Reports” value is recorded as < 4. In addition, in the data set on Hepatotoxicity [5], the “Alkaline Phosphatase Increase - Activity Score” value is recorded as “Inactive”, the “Alkaline Phosphatase Increase - Index Value” came to 0.3 and the “Alkaline Phosphatase Increase - Number of Reports” value is < 4. For the same compound, in the data set with Hepatotoxicity [6], the “GGT Increase - Activity Score” value was “Inactive”, the “GGT Increase - Index Value” stood at 0 and the “GGT Increase - Number of Reports” value is recorded as < 4.

`CC(C)(C)NCC(O)c1ccc(O)c(CO)n1` (configuration not stated) [PIRBUTEROL]: in the data set with Hepatotoxicity [1], the “LDH Increase - Activity Score” value was “Inactive”, the “LDH Increase - Index Value” stood at 0 and the “LDH Increase - Number of Reports” value was < 4. In addition, in the data set on Hepatotoxicity [2], the “SGPT Increase - Activity Score” value was “Inactive”, the “SGPT Increase - Index Value” is reported as 0 and the “SGPT Increase - Number of Reports” value was < 4. Besides, in the data set on Hepatotoxicity [3], the “Composite Activity - Active” value stood at 0, the “Composite Activity - Marginal” value came to 0 and the “Composite Activity - Score” value is listed as “Inactive”. In the data set on Hepatotoxicity [4], the “SGOT Increase - Activity Score” value was “Inactive”, the “SGOT Increase - Index Value” turned out to be 0.3 and the “SGOT Increase - Number of Reports” value is recorded as < 4. In addition, in the data set on Hepatotoxicity [5], the “Alkaline Phosphatase Increase - Activity Score” value is given as “Inactive”, the “Alkaline Phosphatase Increase - Index Value” is recorded as 0 and the “Alkaline Phosphatase Increase - Number of Reports” value is < 4. Further, in the data set on Hepatotoxicity [6], the “GGT Increase - Activity Score” value was “Inactive”, the “GGT Increase - Index Value” turned out to be 0 and the “GGT Increase - Number of Reports” value is given as < 4.

With `CN1C(C(=O)Nc2ccccn2)=C(O)c2ccccc2S1(=O)=O` [PIROXICAM], in the data set with Hepatotoxicity [1], the “LDH Increase - Activity Score” value was “Inactive”, the “LDH Increase - Index Value” came out at 0.5 and the “LDH Increase - Number of Reports” value is on record as < 4. In the data set with Hepatotoxicity [2], the “SGPT Increase - Activity Score” value is given as “Inactive”, the “SGPT Increase - Index Value” came out at 0.9 and the “SGPT Increase - Number of Reports” value is given as “>= 4”. In the data set on Hepatotoxicity [3], the “Composite Activity - Active” value came out at 0, the “Composite Activity - Marginal” value was found to be 0 and the “Composite Activity - Score” value is “Inactive”. Further, in the data set on Hepatotoxicity [4], the “SGOT Increase - Activity Score” value is given as “Inactive”, the “SGOT Increase - Index Value” stood at 1.7 and the “SGOT Increase - Number of Reports” value was “>= 4”. Besides, in the data set with Hepatotoxicity [5], the “Alkaline Phosphatase Increase - Activity Score” value is recorded as “Inactive”, the “Alkaline Phosphatase Increase - Index Value” stood at 2.6 and the “Alkaline Phosphatase Increase - Number of Reports” value is reported as “>= 4”. In the data set on Hepatotoxicity [6], the “GGT Increase - Activity Score” value is recorded as “Inactive”, the “GGT Increase - Index Value” is reported as 0 and the “GGT Increase - Number of Reports” value is < 4.
